Data on twelve compounds can be found in US7022737B2, “Manipulating nitrosative stress to kill pathologic microbes, pathologic helminths and pathologically proliferating cells or to upregulate nitrosative stress defenses” (Duke University, priority 1996, dated 2006).

The subject of one series is Streptomycetes. As to the kind of experiment: Immunocompromised patient with Streptomycetes lesion. Particulars: 4 mmol/kg three times a day p.o. with trimethoprim and sulfamethoxazole, one month. It is filed as in vivo. How it is done:
An immunocompromised patient recovering from bone marrow transplantation develops a lump in their cheek at a place previously scratched by a garden implement. A culture obtained from the lump is positive for Streptomycetes. The patient is given DL-α-amino-δ-butylthio valeric acid-SR-sulfoximine at a dose of 4 mmol/kg body weight three times a day p.o. The patient is also given trimethoprim (160 mg twice a day) and sulfamethoxazole (800 mg twice a day) for one month.

In another series the target is T1, rat kidney gamma-GCS (Rattus norvegicus, UniProt P19468).
T1 construct: highly purified rat kidney gamma-GCS; from tissue; host or cells: rat kidney
T1 sequence (P19468 whole entry): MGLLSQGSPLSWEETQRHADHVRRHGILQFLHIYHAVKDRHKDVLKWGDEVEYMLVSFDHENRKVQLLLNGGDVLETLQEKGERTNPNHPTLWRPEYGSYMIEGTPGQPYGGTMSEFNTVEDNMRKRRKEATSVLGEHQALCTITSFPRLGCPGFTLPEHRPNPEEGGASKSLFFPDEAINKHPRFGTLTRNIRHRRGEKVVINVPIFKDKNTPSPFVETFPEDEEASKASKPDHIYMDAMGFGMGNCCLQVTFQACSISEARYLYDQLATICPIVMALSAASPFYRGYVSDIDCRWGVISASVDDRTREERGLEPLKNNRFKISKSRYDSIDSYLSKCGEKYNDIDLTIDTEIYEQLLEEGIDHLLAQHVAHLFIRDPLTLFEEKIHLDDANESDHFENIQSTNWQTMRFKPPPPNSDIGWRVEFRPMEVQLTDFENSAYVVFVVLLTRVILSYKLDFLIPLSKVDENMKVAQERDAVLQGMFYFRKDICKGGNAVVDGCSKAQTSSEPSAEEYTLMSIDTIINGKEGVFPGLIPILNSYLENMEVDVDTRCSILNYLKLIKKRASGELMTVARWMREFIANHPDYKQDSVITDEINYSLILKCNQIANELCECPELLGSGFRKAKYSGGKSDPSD
T1 sequence (P48508 whole entry partner): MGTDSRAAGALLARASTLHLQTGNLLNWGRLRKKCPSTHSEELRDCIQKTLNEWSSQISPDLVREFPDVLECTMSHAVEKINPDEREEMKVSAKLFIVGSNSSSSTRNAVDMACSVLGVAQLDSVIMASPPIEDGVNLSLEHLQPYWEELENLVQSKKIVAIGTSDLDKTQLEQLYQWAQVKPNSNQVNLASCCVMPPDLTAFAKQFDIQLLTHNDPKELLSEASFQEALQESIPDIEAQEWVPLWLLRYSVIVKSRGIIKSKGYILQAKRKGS
Briefly: Inhibition of mammalian gamma-GCS, protocol similar to E. coli enzyme. It is filed as biochemical.

A further series deals with S. typhimurium. Particulars: J. Gen. Microbiol. 72, 291–301 (1972); cited from earlier work.
For series [1], the system named is E. coli. Particulars: chloramphenicol alone; cited from earlier work.
Another series concerns athlete's foot. Briefly: Patients with athlete's foot. It is filed as in vivo. To be noted: 50 mM added to miconazole cream. The protocol:
A runner develops athlete's foot. […] They substitute a cream containing the same ingredients, with the exception that S-nitroso-N-acetyl cysteine has been added so as to be present at a concentration of 50 mM.
A marathon runner develops athlete's foot. They treat themself with a topical mixture of inorganic nitrite, acetic acid and thiol in a cream base.

The next series deals with oral thrush. As to the kind of experiment: Patients with oral thrush. Format: in vivo. The protocol:
An immunocompromised person who is status-post recent chemotherapy develops oral thrush.
A person with leukemia develops oral thrush and is given 2 cc of 50 mM S-nitrosoglutathione, swish and spit, three times/day.
An immunocompromised person with HIV and a low CD4 count develops oral thrush. They are given 5 cc of a solution of 10 mM nitrate.

The subject of a further series is trypanosomes. Briefly: Patient with trypanosome infection. It is filed as in vivo. Particulars: L-buthionine-S-sulfoximine 3 mmol/kg p.o. every 4 hours and S-nitrosoglutathione iv 10 mg/kg every 8 hours, one week. The protocol:
A person presents with high fever, moderate lymphadenopathy and reports that they have lost 40 pounds in the last month, two months after returning from a safari in sub-Saharan Africa. On questioning, the patient reports having developed during the safari an ulcer on their forearm two days following a bite by a fly. […] The patient is hospitalized and given L-buthionine-S-sulfoximine at a dose of 3 mmol/kg p.o. every 4 hours for one week. In addition, the patient receives S-nitrosoglutathione iv at a dose of 10 mg/kg every 8 hours for one week.

Series [2] deals with mixed flora and gram-negativerods. As to the kind of experiment: Diabetic patient with infected skin ulcer. To be noted: topical cream with S-nitrosoglutathione, oxidized glutathione and dinitrophenacyl glutathione. Format: in vivo. An excerpt: A patient with diabetes develops a skin ulcer on the lower aspect of their left leg. Cultures grow mixed flora and gram-negativerods. A topical cream is applied that contains S-nitrosoglutathione, oxidized glutathione and the glutathione S-conjugate dinitrophenacyl glutathione.

Another series relates to mycoplasma. To be noted: 250 mg three times a day.
Series [3] deals with metastatic malignant melanoma. As to the kind of experiment: Patient with metastatic malignant melanoma. It is filed as in vivo. Particulars: L-buthionine-S-sulfoximine 2 mmol/kg p.o. every 4 hours and hydroxyurea 10 mg/kg p.o., one week. The protocol: A person […] and a history of surgery five years previously to remove malignant melanotic nevi from their upper back and chest is found to have blood in their stool on routine physical examination. […] The patient is administered L-buthionine-S-sulfoximine (2 mmol/kg) p.o. every 4 hours for one week and is given 10 mg/kg of hydroxyurea p.o. 1 hour after every third dose of L-buthionine-S-sulfoximine. […] The patient shown no further evidence of metastases during a six month follow-up.

The test system of series [4] is E. coli. Briefly: Patient with E. coli caused gastroenteritis with bloody diarrhea. Format: in vivo. How it is done:
A patient with E. coli caused gastroenteritis with bloody diarrhea is administered α-ethyl-L-buthionine-S-sulfoximine (hereinafter α-ethyl BSO) orally at a dose of 10 mmol/kg body weight four times a day.
A patient with E. coli caused gastroenteritis and bloody diarrhea is administered α-ethyl BSO orally at a dose of 10 mmol/kg body weight four times a day. In addition, the patient is given chloramphenicol orally at a dose of 12.5 mg/kg four times a day. Bloody diarrhea resolved in 36 hours.

The subject of the next series is Chlamydia trachomatous. Briefly: Patients with Chlamydia cervicitis and vaginitis. It is filed as in vivo. Particulars: α-ethyl BSO 4 mmol/kg and nitrate ester of chloramphenicol 12.5 mg/kg, each four times a day p.o. An excerpt:
A person with a history of multiple sexual partners and recurrent urinary tract infections presents with cervicitis and vaginitis of four days duration. The patient complains of pain and vaginal discharge.

Series [5] addresses T2, E. coli gamma-glutamylcysteine synthetase (Escherichia coli, UniProt P0A6W9).
T2 construct: made in house
Briefly: Inactivation of E. coli gamma-GCS by homocysteine sulfoximines (preincubation with ATP, residual activity by coupled PK/LDH assay). To be noted: on an active isomer basis. It is filed as biochemical. The protocol:
E. coli gamma-GCS was isolated from bacterial cells engineered to overexpress the enzyme; the isolation procedure was similar to that used previously to isolate mammalian gamma-GCS. […] The enzyme was assayed in reaction mixtures (final volume=1.0 ml) containing: 150 mM Tris·HCl, pH 8.2, 100 mM KCl, 25 mM MgCl2, 7.5 mM ATP, 7.5 mM phosphoenolpyruvate, 0.3 mM EDTA, 10 mM L-glutamate, 10 mM L-α-aminobutyrate (an L-cysteine analog), 0.3 mM NADH, 5 IU pyruvate kinase, and 5 IU lactate dehydrogenase. Reaction was initiated by adding gamma-GCS; in control studies, L-α-aminobutyrate was omitted from the reaction mixture. In this assay, pyruvate kinase (PK) and lactate dehydrogenase (LDH) are added in excess to detect formation of ADP, one of the products of the gamma-GCS reaction. The relevant enzyme reactions are shown as equations 1–3 below. Oxidation of NADH to NAD^+ is followed and quantitated spectrophotometrically at 340 nm (1 μmol oxidation gives ΔOD=−6.2) and is directly proportional to product formation by gamma-GCS. [drawing 2]
Inhibition by homocysteine sulfoximines was carried out by preincubating the E. coli gamma-GCS with potential inhibitors in the presence of ATP and then removing aliquots of that mixture at specific times and assaying for residual activity using the assay procedure described above. The preincubation reaction mixtures contained (final volume=400 μl) the following: 210 mM Tris·HCl, pH 8.2, 142 mM KCl, 36 mM MgCl2, 10 mM ATP, 0.4 mM EDTA, various amounts of sulfoximine, and gamma-GCS. At intervals, 50 μl aliquots were removed and added to 1.0 ml assay reaction mixtures to determine residual activity spectrophotometrically. Results of a study indicate that E. coli gamma-GCS loses about 27% of its activity over 30 minutes in the absence of added inhibitors; this loss of activity represents an inherent instability in the enzyme when incubated under these reaction conditions in this particular experiment. […]

Series [6] deals with E. coli. As to the kind of experiment: Patients with E. coli septicemia. It is filed as in vivo. How it is done:
A person with fever, mild hypotension, and moderate hematuria has blood and urine cultures that are positive for E. coli. They are given a diagnosis of E. coli septicemia and urinary tract infection. […]
A person with E. coli sepsis presents feeling nauseated and gravely ill. However, their blood pressure is stable. They receive a standard regimen of IV antibiotics, including ampicillin and gentamicin as well as the siderophore ferrioxamine B at a dose of 10 mg/kg.
A person with E. coli sepsis presents with a blood pressure of 80/50 mm Hg. Broad spectrum antibiotics are initiated including ampicillin and gentamicin. […] The patient then receives an intravenous dose of nitrosated chloramphenicol, 12.5 mg four times/day IV together with methylene blue IV at a dose of 5 mg/kg as well as fluid support.

The test system of a further series is rickettsia. It is filed as in vivo. Particulars: 4 mmol/kg four times a day p.o. with chloramphenicol 12.5 mg four times a day p.o.
The subject of a further series is Actinomycetes israelii. Briefly: Patient infected with Actinomycetes israelii. It is filed as in vivo. Particulars: 1 mg/kg four times per day i.v. From the text:
A patient infected with Actinomycetes israelii has a low-grade fever, non-productive cough, and occasional hemoptysis.

T2 sequence (P0A6W9 whole entry): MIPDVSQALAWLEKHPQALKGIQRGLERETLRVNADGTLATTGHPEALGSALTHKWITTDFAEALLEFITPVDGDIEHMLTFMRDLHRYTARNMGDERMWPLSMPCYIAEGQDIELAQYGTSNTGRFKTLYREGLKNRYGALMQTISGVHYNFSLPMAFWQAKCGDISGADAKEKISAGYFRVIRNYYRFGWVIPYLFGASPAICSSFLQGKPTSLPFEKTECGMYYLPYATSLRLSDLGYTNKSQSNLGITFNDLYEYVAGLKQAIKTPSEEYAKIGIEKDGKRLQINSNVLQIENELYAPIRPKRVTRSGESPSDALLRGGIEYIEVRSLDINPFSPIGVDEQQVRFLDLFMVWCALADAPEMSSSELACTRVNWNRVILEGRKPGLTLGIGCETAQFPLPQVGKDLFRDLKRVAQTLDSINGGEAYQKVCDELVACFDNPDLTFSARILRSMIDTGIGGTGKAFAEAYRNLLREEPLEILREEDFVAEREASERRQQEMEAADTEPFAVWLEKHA

In the case of `CCCCS(=N)(=O)CCCC(N)C(=O)O` (racemic) [DL-α-amino-δ-butylthio valeric acid-SR-sulfoximine], the clinical outcome in the series on Streptomycetes is recorded as “lesion in patient's cheek resolves completely”. In the case of `CCCCS(=N)(=O)CCC(N)(CC)C(=O)O` (racemic) [α-ethyl-DL-buthionine-SR-sulfoximine, α-Ethyl-D,L-buthionine-R,S-sulfoximine], the melting point (in general, the temperature, or range, at which the solid turns liquid) lay in the range of 203 to 205 °C. In addition, on rat kidney gamma-GCS (highly purified rat kidney enzyme, DL,SR mixture), the “effectiveness as inhibitor relative to L-buthionine-S-sulfoximine” value came out at 0.025%. For the compound `c1nc[nH]n1` [1,2,4-trazole], the bacterial growth result in the series with S. typhimurium is reported as “inhibiting the growth of S. typhimurium”. For the compound `O=C(N[C@H](CO)[C@H](O)c1ccc([N+](=O)[O-])cc1)C(Cl)Cl` [Chloramphenicol, chloramphenicol], the “usual time to effect” value in the series on E. coli [1] is reported as “normally has effect in three days”. Consider `CC(=O)N[C@@H](CSN=O)C(=O)O` [S-nitroso-N-acetyl cysteine], for which the clinical outcome in the series on athlete's foot is reported as “symptoms improve over seven days”. Turning to `N[C@@H](CCC(=O)N[C@@H](CSN=O)C(=O)NCC(=O)O)C(=O)O` [S-nitrosoglutathione], the clinical outcome with oral thrush (2 cc of 50 mM, swish and spit, three times/day) is “much improved in three days”; in the series on trypanosomes, “blood smear is free of trypanosomes”; in series [2], “culture of the ulcer becomes sterile over three days”. Take `CC[C@H]1OC(=O)[C@H](C)[C@@H](O[C@H]2C[C@@](C)(OC)[C@@H](O)[C@H](C)O2)[C@H](C)[C@@H](O[C@@H]2O[C@H](C)C[C@H](N(C)C)[C@H]2O)[C@](C)(O)C[C@@H](C)C(=O)[C@H](C)[C@@H](O)[C@]1(C)O` [erythromycin]: in the series on mycoplasma, the clinical outcome is “symptoms linger”. As to `NC(=O)NO` [hydroxyurea], in [3], the “reduction in size of metastatic tumor” value amounted to 30%. Take `O=[N+]([O-])O` [nitrate]: in the series with oral thrush (5 cc of 10 mM solution), the clinical outcome is given as “thrush resolves”.

`CCCCS(=N)(=O)CCC(N)(CC)C(=O)O` [α-ethyl-L-buthionine-S-sulfoximine]: on rat kidney gamma-GCS (expressed on the basis of the active isomer), the “inhibitory activity relative to L-buthionine-S-sulfoximine” value is “about 0.1%”. The “time to resolution of bloody diarrhea” value in the series with E. coli [4] (10 mmol/kg orally four times a day plus chloramphenicol 12.5 mg/kg orally four times a day) came to 36 h. In addition, the clinical outcome in the series on E. coli [4] (orally 10 mmol/kg four times a day) is “Bloody diarrhea resolved over four days”; with E. coli [6] (resistant to conventional antibiotics, 4 mmol/kg four times a day p.o. plus hyperbaric 100% oxygen, ampicillin and gentamicin continued) it was “symptoms resolve within four days”; in the series with E. coli [6] (septicemia and urinary tract infection, α-ethyl BSO 4 mmol/kg four times a day p.o., S-nitroso-gamma-methyl-L-homocysteine 50 μg/kg i.v., gentamicin), “symptoms resolve and blood and urine cultures are negative for E. coli after two weeks”. In addition, the “time to resolution of infection” value with Chlamydia trachomatous amounted to 10 days. Further, the “effectiveness as inhibitor relative to L-S-BSO” value in [5] was “about 20%”. Besides, the “time until patient becomes well” value with rickettsia is listed as 10 days. Consider dinitrophenacyl glutathione, for which the clinical outcome in [2] is on record as “culture of the ulcer becomes sterile over three days”.

In the case of serinyl-S-nitrosocysteinyl-gluatamine, in the series with Actinomycetes israelii, the clinical outcome is reported as “symptoms resolve over three weeks”.
